The values below come from patent US20190038711A1, “Medicament For Treating Pulmonary Tuberculosis” (Shandong Zhonghai Pharmaceutical CO. LTD, priority 2016, published 2019).

For the assay, the system named is airway hyperresponsiveness. As to the kind of experiment: Experiment on airway hyperresponsiveness (late-phase airway response, APTI). The format is in vivo. As to conditions: sensitized mice, acetylcholine 50 μg/kg i.v.; medicament 1 g three times a day intragastric for 17 days; dexamethasone 0.5 ml/kg i.p. daily. How it is done: According to the Above Embodiments 13-18, an Experiment on Airway Hyperresponsiveness was Conducted, with an Experimental Method and Effects being Shown Below:
(1) mice for the experiment: the male mice for this experiment were 6 weeks old;
(2) dose: the dose for each mouse was 3 g/day, 3 times a day;
(3) antigen sensitization, allergy attack and treatment: 200 μg of conalbumin (CA) and 2 mg of dinitrobenzene (DNP)-bound albumin were dissolved in 0.3 ml of buffer solution PBS and then […] injected into mice for sensitization twice at an interval of one week. The mice were anesthetized 7 days later after the second sensitization, and were intratracheally provided with 0.05 ml of buffer solution PBS containing 100 μg of conalbumin (CA) to induce an allergy attack. On the 20th day and the 30th day, a further allergy attack was induced by the same method at twice dose. The mice having an allergy attack were divided into 9 groups 24 hours later after the first allergy attack. […]
(4) measurement of late-phase airway response: on the third day after the last allergy attack, the mice of the above 8 groups were intravenously injected with acetylcholine, and then the airway pressure changes of these mice and those of group 9 were all measured to reflect airway responses. […]

With `C[C@@H]1C[C@H]2[C@@H]3CCC4=CC(=O)C=C[C@]4(C)[C@@]3(F)[C@@H](O)C[C@]2(C)[C@@]1(O)C(=O)CO` [dexamethasone], the “APTI (airway pressure-time index)” value is 565 ± 31 centimeter water column per second.
